Reference: the NIST ThermoML archive (doi:10.1016/j.jct.2008.02.020)

Settings: Liquid, Buoyancy - hydrostatic balance with magnetic suspension - one sinker

CCCCCCC [heptane]
Settings	mass density [kg/m3]
233.15 K, 101.68 kPa	733.289
233.15 K, 1104.1 kPa	733.918
233.15 K, 2003.3 kPa	734.481
233.15 K, 4006 kPa	735.714
233.15 K, 6004.8 kPa	736.928
233.15 K, 8009.5 kPa	738.125
233.15 K, 9956.8 kPa	739.277
233.15 K, 11864 kPa	740.377
233.15 K, 13984 kPa	741.588
233.15 K, 15995 kPa	742.722
233.15 K, 17888 kPa	743.774
233.15 K, 20074 kPa	744.977
233.15 K, 22024 kPa	746.029
233.15 K, 24018 kPa	747.094
233.15 K, 25954 kPa	748.113
233.15 K, 27944 kPa	749.147
233.15 K, 29979 kPa	750.192
253.15 K, 98.99 kPa	717.086
253.15 K, 1101.5 kPa	717.807
253.15 K, 2000.5 kPa	718.446
253.15 K, 4006.3 kPa	719.85
253.15 K, 6005.4 kPa	721.223
253.15 K, 8147.8 kPa	722.669
253.15 K, 10096 kPa	723.959
253.15 K, 11827 kPa	725.088
253.15 K, 13955 kPa	726.459
253.15 K, 16060 kPa	727.785
253.15 K, 18040 kPa	729.014
253.15 K, 20020 kPa	730.22
253.15 K, 22093 kPa	731.465
253.15 K, 23828 kPa	732.495
253.15 K, 25891 kPa	733.701
253.15 K, 27739 kPa	734.762
253.15 K, 29900 kPa	735.987
273.15 K, 102.15 kPa	700.687
273.15 K, 1101.3 kPa	701.507
273.15 K, 2006.3 kPa	702.244
273.15 K, 4005.4 kPa	703.841
273.15 K, 6005.5 kPa	705.403
273.15 K, 8197.5 kPa	707.077
273.15 K, 10109 kPa	708.507
273.15 K, 12114 kPa	709.976
273.15 K, 14092 kPa	711.403
273.15 K, 16116 kPa	712.831
273.15 K, 18076 kPa	714.19
273.15 K, 20096 kPa	715.565
273.15 K, 22069 kPa	716.883
273.15 K, 24102 kPa	718.226
273.15 K, 25918 kPa	719.397
273.15 K, 27991 kPa	720.718
273.15 K, 29444 kPa	721.633
293.15 K, 98.89 kPa	683.986
293.15 K, 1104.3 kPa	684.937
293.15 K, 2003.3 kPa	685.779
293.15 K, 4003 kPa	687.611
293.15 K, 6003.7 kPa	689.394
293.15 K, 8007.4 kPa	691.14
293.15 K, 10028 kPa	692.854
293.15 K, 12139 kPa	694.603
293.15 K, 14008 kPa	696.118
293.15 K, 16160 kPa	697.827
293.15 K, 18149 kPa	699.368
293.15 K, 19992 kPa	700.756
293.15 K, 22123 kPa	702.362
293.15 K, 24036 kPa	703.766
293.15 K, 25999 kPa	705.175
293.15 K, 27983 kPa	706.576
293.15 K, 29986 kPa	707.965
313.15 K, 101.45 kPa	666.898
313.15 K, 1102.2 kPa	667.995
313.15 K, 2005.5 kPa	668.973
313.15 K, 4004.5 kPa	671.086
313.15 K, 6106.9 kPa	673.238
313.15 K, 7941.2 kPa	675.062
313.15 K, 9944.4 kPa	676.997
313.15 K, 11841 kPa	678.793
313.15 K, 13782 kPa	680.575
313.15 K, 16032 kPa	682.588
313.15 K, 17876 kPa	684.2
313.15 K, 19748 kPa	685.804
313.15 K, 21803 kPa	687.518
313.15 K, 23829 kPa	689.172
313.15 K, 25814 kPa	690.765
313.15 K, 27801 kPa	692.324
313.15 K, 29818 kPa	693.872
333.15 K, 103 kPa	649.298
333.15 K, 1106 kPa	650.588
333.15 K, 2004.1 kPa	651.723
333.15 K, 4003.6 kPa	654.18
333.15 K, 6004.6 kPa	656.549
333.15 K, 8005.6 kPa	658.837
333.15 K, 9901.5 kPa	660.933
333.15 K, 12083 kPa	663.274
333.15 K, 14040 kPa	665.309
333.15 K, 16005 kPa	667.293
333.15 K, 17854 kPa	669.109
333.15 K, 19985 kPa	671.149
333.15 K, 21967 kPa	672.997
333.15 K, 23926 kPa	674.778
333.15 K, 25823 kPa	676.467
333.15 K, 27823 kPa	678.205
333.15 K, 30009 kPa	680.058
353.15 K, 99.37 kPa	631.037
353.15 K, 1182.8 kPa	632.68
353.15 K, 2156.3 kPa	634.131
353.15 K, 4140.7 kPa	636.982
353.15 K, 6175.6 kPa	639.78
353.15 K, 8138.9 kPa	642.37
353.15 K, 10095 kPa	644.851
353.15 K, 12083 kPa	647.284
353.15 K, 14040 kPa	649.596
353.15 K, 16039 kPa	651.883
353.15 K, 18008 kPa	654.064
353.15 K, 19996 kPa	656.201
353.15 K, 21956 kPa	658.247
353.15 K, 23925 kPa	660.247
353.15 K, 25887 kPa	662.188
353.15 K, 27855 kPa	664.084
353.15 K, 29976 kPa	666.077
373.15 K, 1164.3 kPa	613.877
373.15 K, 2149.2 kPa	615.631
373.15 K, 4123.5 kPa	618.999
373.15 K, 5987 kPa	622.014
373.15 K, 8094.8 kPa	625.262
373.15 K, 10060 kPa	628.151
373.15 K, 12066 kPa	630.972
373.15 K, 14018 kPa	633.61
373.15 K, 16044 kPa	636.241
373.15 K, 18058 kPa	638.765
373.15 K, 19976 kPa	641.085
373.15 K, 21960 kPa	643.408
373.15 K, 23948 kPa	645.665
373.15 K, 25805 kPa	647.712
373.15 K, 27898 kPa	649.952
373.15 K, 29819 kPa	651.952
393.15 K, 1101.9 kPa	593.952
393.15 K, 2001.5 kPa	595.905
393.15 K, 4002.8 kPa	600.027
393.15 K, 6004.3 kPa	603.884
393.15 K, 8005.5 kPa	607.511
393.15 K, 10007 kPa	610.942
393.15 K, 12111 kPa	614.361
393.15 K, 14116 kPa	617.466
393.15 K, 16097 kPa	620.399
393.15 K, 18029 kPa	623.142
393.15 K, 20054 kPa	625.904
393.15 K, 22016 kPa	628.483
393.15 K, 24006 kPa	631.008
393.15 K, 25986 kPa	633.434
393.15 K, 27952 kPa	635.769
393.15 K, 29843 kPa	638.037
